Test results taken from patent publication US12663562B2, “Polysaccharide hydrogel optical fibers and their fabrication and use” (The Board of Trustees of the Leland Stanford Junior …, priority 2021, dated 2026).

Assays:
Assay type in all cases: cell-based
DU145 cells = experiment: Spectral fingerprinting (RFP-level transmission, real-time calcein AM metabolism) of cancer cells in living optical fibers; details: DU145 cells in fiber core, 48 h culture, 1.5 μM cisplatin or 1 μM staurosporine
Protocol: (§1) To validate the possibility of light carrying information upon interaction with fluorescent molecules, 3T3 fibroblasts were stained with two model fluorescent markers of different wavelengths, namely Orange Cell Tracker CMRA and Calcein AM (Invitrogen) according to manufacturer's instructions. Briefly, 3T3 cells in suspension were incubated with each marker for 30 minutes under 37° C., washed with PBS, and introduced in the optical fiber core as described above. Fibers were then fabricated and aligned in the input-output setup as previously described the light source and spectrometer. Output spectra were collected and spectral ratios were obtained by dividing the spectra of fluorescent-tagged cell-laden fibers to those without fluorescent molecules, in order to confirm the presence of transmission dips in agreement with the marker's excitation curves. For performing calcein AM overtime metabolic tracking, 4 cm-long fibers with unstained cells were aligned in the optical readout setup, and 10 μL of a 1:100 Calcein AM solution in CaPBS was added dropwise along the optical fiber's length. The spectral output was then collected every minute for a total of 10 minutes after the beginning of the calcein AM metabolization. The 495 nm normalized transmission values were obtained by normalizing all spectral curves to their maximum and extracting the normalized intensity values as an average of the 493-495 nm window. These were then plotted overtime.
LNCaP, 22Rv1, and DU145 cells were purchased from the American Type Culture Collection (ATCC; Manassas, VA). All cell lines were authenticated through Stanford Functional Genomics Facility. FUCRW plasmid was a kind gift from Dr. Owen Witte's laboratory at University of California Los Angeles. 22Rv1 and DU145 cells were infected with FUCRW virus expressing red fluorescent protein (RFP). RFP signal was confirmed 72 hours post infection. […]
Spectral fingerprinting tests with the different cell lines were performed by integrating them within optical hydrogel fibers as described in the previous section. […] After 48 h of culture, the living optical fibers were washed twice with PBS to remove media remains that could interfere with optical readouts (e.g., Phenol Red). […] RFP-level transmission readouts were immediately obtained from the first output collected, and calcein activity overtime was then tracked by the addition of calcein and spectral recording every minute for 10 minutes, as described in the previous section. […] Both RFP and calcein signals were analyzed in several pictures per replicate via Cell Profiler, in order to compare the relative post-incubation signal intensities to the relative decreases in fiber optics transmission at each specific wavelength instantly (RFP) and overtime (calcein).

RV122 cancer cells = experiment: Optical fiber anti-cancer drug testing (RFP-level transmission, calcein profiling, image quantification); details: for calcein activity profiling (slope of calcein conversion): RV122 cancer cells after culture with drug; for image quantification of native protein expression (RFP) and calcein metabolization: microscopy validation, RV122 cancer cells
Protocol: as §1
LNCaP, 22Rv1, and DU145 cells were purchased from the American Type Culture Collection (ATCC; Manassas, VA). All cell lines were authenticated through Stanford Functional Genomics Facility. FUCRW plasmid was a kind gift from Dr. Owen Witte's laboratory at University of California Los Angeles. 22Rv1 and DU145 cells were infected with FUCRW virus expressing red fluorescent protein (RFP). RFP signal was confirmed 72 hours post infection. LNCaP-RFP-Trop2-OV cells expressing RFP and Trop2 oncogene were generated as previously described ^43. All cells were cultured in RPMI medium supplemented with 10% FBS, 4 mM L-glutamine, and 1% penicillin/streptomycin.
Spectral fingerprinting tests with the different cell lines were performed by integrating them within optical hydrogel fibers as described in the previous section. Briefly, cancer cells were resuspended in the core material at a density of 10 M/mL and cultured in different conditions, namely control medium, 1.5 μM Cisplatin (Biovision) or 1 μM Staurosporine (Biovision). After 48 h of culture, the living optical fibers were washed twice with PBS to remove media remains that could interfere with optical readouts (e.g., Phenol Red). Before measurement, fibers were placed in a 1 mM CaCl2) solution to facilitate their manipulation and were then aligned in the optical characterization setup with spectrometer connection. RFP-level transmission readouts were immediately obtained from the first output collected, and calcein activity overtime was then tracked by the addition of calcein and spectral recording every minute for 10 minutes, as described in the previous section. […] Both RFP and calcein signals were analyzed in several pictures per replicate via Cell Profiler, in order to compare the relative post-incubation signal intensities to the relative decreases in fiber optics transmission at each specific wavelength instantly (RFP) and overtime (calcein).

[1] = tested on: LnCAP-RFP-Trop2-OV cancer cells; experiment: Digitalization and quantification of 3D cancer invasive proliferation in living optical fibers (output power, RFP-level transmission)
Protocol: In order to evaluate the invasive proliferation of encapsulated cancer cells over time and quantify this response through optics upon exposure to different levels of the anti-proliferative drug cisplatin, the core material was modified by blending alginate with GelTrex (Growth-Factor Reduced Basement Membrane, Thermofisher) at a 50:50 ratio. Fibers with Cells were fabricated as described before with a 10 million/mL density and were cultured for 1 week to observe the cancer tissue development and the formation of fiberoid (fiber-shaped organoids) structures. To do so, fibers were incubated with Calcein AM 1:500 (Invitrogen) and Hoechst 33342 1:1000 (Thermo Scientific), washed with PBS and imaged under confocal microscope (Zeiss). As model cell line, we used the RFP-expressing LNCaP-RFP-Trop2-OV due to its aggressiveness and relevance in metastatic events. To then quantify the effect of cisplatin in the impedance of 3D tumor growth, fibers were cultured over a 5-days period under control conditions and increasing concentrations of cisplatin (1.5, 15 and 150 μM). After each time point, fibers were washed twice with CaPBS, briefly dipped in 1 mM CaCl2) and aligned in the optical characterization setup. Two types of immediate readouts were acquired: output power via powermeter reading and spectral response through spectrometer connection. Output power was directly used as an indicator of light attenuation induced by tumor growth and spectral data was processed to extract RFP-level transmission values, as plotted in the maintext. In parallel, fibers were also axially sectioned and imaged in confocal microscope for observing the distribution of cancer cells and aggregates within the fiber structure overtime and validate the fiber optics readouts.

Compound | RFP expression (RFP-level transmission) (DU145 cells) | capacity of cells to metabolize calcein (calcein AM real-time profile) (DU145 cells) | calcein activity profiling (slope of calcein conversion) (RV122 cancer cells) | native fluorescence, RFP-level transmission (RV122 cancer cells; RV122 cancer cells in fibers after drug exposure) | image quantification of native protein expression (RFP) and calcein metabolization (RV122 cancer cells) | RFP expression (RFP-level transmission) ([1]; cisplatin 1.5 µM) | cancer growth (optical fiber output power) ([1]; cisplatin 1.5 μM, up to 5 days) | RFP expression (RFP-level transmission) ([1]; cisplatin 15 μM) | cancer growth (optical fiber output power) ([1]; cisplatin 15 μM, up to 5 days) | RFP expression (RFP-level transmission) ([1]; cisplatin 150 μM, after 1 day of culture) | cancer growth / invasive proliferation (optical fiber output power) ([1]; cisplatin 150 μM, up to 5 days)
CN[C@@H]1C[C@H]2O[C@@](C)([C@@H]1OC)n1c3ccccc3c3c4c(c5c6ccccc6n2c5c31)C(=O)NC4 [staurosporine] | significant reduction in RFP expression | drastic inhibition | no longer possible to observe metabolic calcein conversion | significant decrease in fluorescent | more prominent effects | – | – | – | – | – | –
N.N.[Cl][Pt][Cl] [cisplatin] | little impact | little impact | decrease in the slope | – | moderate effect | some effect in the protein's expression by day 5 | no significant impact | noticeable effect after day 3 | prevented considerable growth after 3 days | significant decrease in expression | efficiently inhibited the invasive proliferation
